In US7053177B1, “Random peptides that bind to gastro-intestinal tract (GIT) transport receptors and related methods” (Cytogen Corporation, priority 1997, dated 2006):
Ends that are not written are not given here. Peptide text beside a SMILES is read from it. * marks the point of attachment. Dansyl = CN(C)c1cccc2c(S(=O)(=O)*)cccc12; K(dns) = dansyl-lysine

Assays:
[1] = test system: P100 membrane fraction of Caco-2 cells; test: Dansylated peptide ELISA: relative binding of PAX2 and HAX42 peptides to P100 fractions (ratio to ZElan021); details: ratio to ZElan021 = 1.00
Description: The peptides and proteins were analyzed by a dansylated peptide ELISA method in which 96 well plates were coated overnight at 4° C. with 100 μl/well coating protein (normally 100 μg/ml P100 membrane fraction) in 0.05M carbonate buffer pH9.6. Nonspecific binding was blocked using 200 μl/well, 2% Marvel/PBS for 2 hours at 37° C. prior to incubation with dansylated peptides. The plates were washed three times with PBS/0.05% Tween 20 and after each subsequent incubation step. […] A buffer blank control was included to ensure that background binding to plastic was not due to the antibodies used in the assay system. […] Plates were developed using 75 μl/well Bionostics TMB substrate and incubated for approximately 10 minutes. The developing reaction was stopped using Bionostics Red Stop solution (25 μl/well), and the optical density of the plates was read at 650 nm. […]

[2] = target: bovine serum albumin (bovine) (UniProt P02769); test: phage ELISA on coated BSA
Chain of bovine serum albumin (bovine) (P02769 25-607 limits assumed): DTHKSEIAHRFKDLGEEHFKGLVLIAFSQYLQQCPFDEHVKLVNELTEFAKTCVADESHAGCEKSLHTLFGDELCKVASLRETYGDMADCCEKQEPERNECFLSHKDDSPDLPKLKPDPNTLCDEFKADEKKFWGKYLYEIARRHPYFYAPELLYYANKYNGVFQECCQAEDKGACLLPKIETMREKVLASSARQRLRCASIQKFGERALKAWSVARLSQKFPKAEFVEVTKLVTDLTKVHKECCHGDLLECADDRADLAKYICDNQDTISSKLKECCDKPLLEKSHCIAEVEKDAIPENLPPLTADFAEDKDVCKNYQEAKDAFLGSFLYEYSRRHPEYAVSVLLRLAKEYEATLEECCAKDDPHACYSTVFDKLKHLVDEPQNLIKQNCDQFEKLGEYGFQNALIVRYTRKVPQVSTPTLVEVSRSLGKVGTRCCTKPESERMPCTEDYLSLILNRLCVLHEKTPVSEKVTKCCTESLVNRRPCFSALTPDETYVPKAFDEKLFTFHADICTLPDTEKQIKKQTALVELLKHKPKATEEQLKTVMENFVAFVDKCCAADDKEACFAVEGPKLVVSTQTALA

## CC(C)C[C@H](NC(=O)[C@H](CCCNC(=N)N)NC(=O)[C@H](CO)NC(=O)[C@@H](NC(=O)[C@H](CCCCN)NC(=O)[C@H](CC(N)=O)NC(=O)[C@H](CCCNC(=N)N)NC(=O)[C@@H](NC(=O)[C@H](CC(N)=O)NC(=O)[C@H](CCCNC(=N)N)NC(=O)[C@@H](N)CCCCNS(=O)(=O)c1cccc2c(N(C)C)cccc12)[C@@H](C)O)[C@@H](C)O)C(=O)N[C@@H](CO)C(=O)N[C@@H](C)C(=O)N[C@@H](CC(N)=O)C(=O)N1CCC[C@H]1C(=O)N[C@@H](Cc1c[nH]cn1)C(=O)N[C@@H](CCCNC(=N)N)C(=O)N[C@@H](CO)C(=O)N[C@@H](Cc1c[nH]cn1)C(=O)N[C@@H](CCCNC(=N)N)C(N)=O [ZElan084] (H-K(Dansyl)RNTRNKTSRLSANPHRSHR-NH2)
[1]; PAX2 peptides, second column
  Binding value at 20 μg/ml: 0.93
  Binding value at 50 μg/ml: 0.77

## H2N-K(dns)SDHALGTNLRSDNAKEPGDYNCCGNG-CONH2 ({K(dns)}-SDHALGTNLRSDNAKEPGDYNCCGNG-NH2; cysteine pairing not given here) [ZElan06O]
[1]; HAX42 peptides
  Binding value at 20 μg/ml: 0.44
[1]; HAX42 peptides, first column
  Binding value at 50 μg/ml: 0.56
[1]; HAX42 peptides, second column
  Binding value at 50 μg/ml: 0.43

## H2N—K(dns)NCCGNGNSTG ({K(dns)}-NCCGNGNSTG-NH2; cysteine pairing not given here) [ZElan093]
[1]; HAX42 peptides, first column
  Binding value at 25 μg/ml: 1.88
[1]; HAX42 peptides, second column
  Binding value at 25 μg/ml: 1.37
[1]; HAX42 peptides, third column
  Binding value at 25 μg/ml: 1.33

## H2N—K(dns)PGDYNCCGNG ({K(dns)}-PGDYNCCGNG-NH2; cysteine pairing not given here) [ZElan092]
[1]; HAX42 peptides, first column
  Binding value at 25 μg/ml: 1.41
[1]; HAX42 peptides, second column
  Binding value at 25 μg/ml: 1.90
[1]; HAX42 peptides, third column
  Binding value at 25 μg/ml: 0.91

## H2N—K(dns)PGDYNCCGNGNSTG [ZElan091]
[1]; HAX42 peptides, first column
  Binding value at 25 μg/ml: 2.02
[1]; HAX42 peptides, second column
  Binding value at 25 μg/ml: 1.37
[1]; HAX42 peptides, third column
  Binding value at 25 μg/ml: 1.20

## H2N—K(dns)SDHALGTNLRSDNAK ({K(dns)}-SDHALGTNLRSDNAK; not fully specified (C-terminus); printed as H2N—K(dns)SDHALGTNLRSDNAK) [ZElan089]
[1]; HAX42 peptides, first column
  Binding value at 25 μg/ml: 0.55
[1]; HAX42 peptides, second column
  Binding value at 25 μg/ml: 0.44
[1]; HAX42 peptides, third column
  Binding value at 25 μg/ml: 0.49

## H2N—K(dns)SDHALGTNLRSDNAKEPGDY ({K(dns)}-SDHALGTNLRSDNAKEPGDY; not fully specified (C-terminus); printed as H2N—K(dns)SDHALGTNLRSDNAKEPGDY) [ZElan087]
[1]; HAX42 peptides, first column
  Binding value at 25 μg/ml: 0.46
[1]; HAX42 peptides, second column
  Binding value at 25 μg/ml: 0.44

## H2N—K(dns)SDNAKEPGDYNCCGNGNSTG ({K(dns)}-SDNAKEPGDYNCCGNGNSTG-NH2; cysteine pairing not given here) [ZElan088]
[1]; HAX42 peptides, first column
  Binding value at 25 μg/ml: 2.21
[1]; HAX42 peptides, second column
  Binding value at 25 μg/ml: 1.41
[1]; HAX42 peptides, third column
  Binding value at 25 μg/ml: 1.63

## K(Dansyl)GRNHDVVSSNTHKSYRSPRSASYPRLSNDRTDRTEPAPSS-NH2 [ZElan083]
[1]; PAX2 peptides, first column
  Binding value at 20 μg/ml: 0.43
[1]; PAX2 peptides, second column
  Binding value at 20 μg/ml: 0.63
  Binding value at 50 μg/ml: 0.88

## SHPWYRHWNHGDFSGSGQSRHTPPESPHPGRPNATI [phage DAX27]
[2]
  OD: 0.424 OD 650 nm

## SVGNDKTSRPVSFYGRVSDLWNASLMPKRTPSSKRHDDG [phage DCX45]
[2]
  OD: 0.075 OD 650 nm

B1: phage SNiAX6 (peptide)
peptide: RTTTAKGCLLGSFGVLSGCSFTPTSPPPHLGYPPHSVN
modifications: cysteine pairing not given here; also: displayed as N-terminal pIII fusion on M13 phage
[2]
  OD: 0.056 OD 650 nm

## SESGRCRSVSRWMTTWQTQKGGCGSNVSRGSPLDPSHQTGHATT [phage DAX15]
[2]
  OD: 0.101 OD 650 nm

## RSGAYESPDGRGGRSYVGGGGGCGNIGRKHNLWGLRTASPACWD [phage S15]
[2]
  OD: 0.053 OD 650 nm

## SPKLSSVGVMTKVTELPTEGPNAISIPISATLGPRNPLR (also: displayed as N-terminal pIII fusion on M13 phage) [phage SNiAX8]
[2]
  OD: 0.068 OD 650 nm

## RWCGADDPCGASRWRGGNSLFGCGLRCSAAQSTPSGRIHSTSTS [phage DAB7]
[2]
  OD: 0.09 OD 650 nm

## REWRFAGPPLDLWAGPSLPSFNASSHPRALRTYWSQRPR [phage DAX23]
[2]
  OD: 0.153 OD 650 nm

## SGRTTSEISGLWGWGDDRSGYGWGNTLRPNYIPYRQATNRHRYT [phage DCX26]
[2]
  OD: 0.213 OD 650 nm

## RVGQCTDSDVRRPWARSCAHQGCGAGTRNSHGCITRPLRQASAH [phage SNi10]
[2]
  OD: 0.051 OD 650 nm

## SPCGGSWGRFMQGGLFGGRTDGCGAHRNRTSASLEPPSSDY [phage SNi34]
[2]
  OD: 0.115 OD 650 nm

## RSSANNCEWKSDWMRRACIARYANSSGPARAVDTKAAP [phage DAB18]
[2]
  OD: 0.085 OD 650 nm

## SSSSDWGGVPGKVVRERFKGRGCGISITSVLTGKPNPCPEPKAA [phage S22]
[2]
  OD: 0.061 OD 650 nm

## SGGEVSSWGRVNDLCARVSWTGCGTARSARTDNKGFLPKHSSLR [phage SNi45]
[2]
  OD: 0.056 OD 650 nm

## SKWSWSSRWGSPQDKVEKTRAGCGGSPSSTNCHPYTFAPPPQAG [phage DAB24]
[2]
  OD: 0.441 OD 650 nm

## RTFENDGLGVGRSIQKKSDRWYASHNIRSHFASMSPAGK (peptide, not shown: large carriers) [phage PAX14]
[2]
  OD: 0.139 OD 650 nm

## SHSGGMNRAYGDVFRELRDRWNATSHHTRPTPQLPRGPN [phage SNi28]
[2]
  OD: 0.113 OD 650 nm

## SWTRWGKHTHGGFVNKSPPGKNATSPYTDAQLPSDQGPP (peptide, not shown: large carriers) [phage PAX16]
[2]
  OD: 0.171 OD 650 nm

## RWCGAELCNSVTKKFRPGWRDHANPSTHHRTPPPSQSSP [phage DAB3]
[2]
  OD: 0.072 OD 650 nm

## RWNWTVLPATGGHYWTRSTDYHAINNHRPSIPHQHPTPI [phage DCX33]
[2]
  OD: 0.103 OD 650 nm

## RMEDIKNSGWRDSCRWGDLRPGCGSRQWYPSNMRSSRDYPAGGH [phage DAX24]
[2]
  OD: 0.118 OD 650 nm

## RGAADQRRGWSENLGLPRVGWDAIAHNSYTFTSRRPRPP [phage SNi38]
[2]
  OD: 0.076 OD 650 nm

B2: phage SNiAX2 (peptide)
peptide: SDSDGDHYGLRGGVRCSLRDRGCGLALSTVHAGPPSFYPKLSSP
modifications: cysteine pairing not given here; also: displayed as N-terminal pIII fusion on M13 phage
[2]
  OD: 0.065 OD 650 nm

## SKSGEGGDSSRGETGWARVRSHAMTAGRFRWYNQLPSDR [phage DAB10]
[2]
  OD: 0.153 OD 650 nm

## SGFWEFSRGLWDGENRKSVRSGCGFRGSSAQGPCPVTPATIDKH [phage DAB30]
[2]
  OD: 0.121 OD 650 nm
